# From PubChem BioAssay (NCI)
#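 Where inhibition never reached the appropriate level, the endpoint shown equals the highest concentration tested. Otherwise, values were interpolated linearly from a five-concentration, 48-hour dose response in 96-well plates. The concentration for full growth arrest is given as TGI.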
# Tests used:
# Experiment in all cases: NCI tumour cell line growth inhibition, 48 h
# [1] = tested on: T-47D breast
# [2] = tested on: HCT-116 colon
# [3] = tested on: HCC-2998 colon
# [4] = tested on: IGROV1 ovarian
# [5] = tested on: HOP-62 NSCLC
# [6] = tested on: MDA-MB-435
# [7] = tested on: COLO 205 colon
# [8] = tested on: MDA-MB-231 breast
# [9] = tested on: K-562 leukemia
# [10] = tested on: BT-549 breast
# [11] = tested on: CCRF-CEM leukemia
# [12] = tested on: MDA-N
# [13] = tested on: SN12C renal
# [14] = tested on: NCI-H522 lung
# [15] = tested on: MCF7 breast
# [16] = tested on: SF-268 CNS
# [17] = tested on: HS 578T breast
# [18] = tested on: RPMI-8226 leukemia
# [19] = tested on: UO-31 renal
# [20] = tested on: UACC-257 melanoma
# [21] = tested on: U251 CNS
# [22] = tested on: SF-539 CNS
# [23] = tested on: NCI/ADR-RES ovarian
# [24] = tested on: LOX IMVI melanoma
# [25] = tested on: HT29 colon
# [26] = tested on: M14 melanoma
# [27] = tested on: PC-3 prostate
# [28] = tested on: SK-OV-3 ovarian
# [29] = tested on: A549 NSCLC
# [30] = tested on: NCI-H460 lung
# [31] = tested on: OVCAR-4 ovarian
# [32] = tested on: SW-620 colon
# [33] = tested on: MOLT-4 leukemia
# [34] = tested on: NCI-H226 lung
# [35] = tested on: HOP-92 NSCLC
# [36] = tested on: HCT-15 colon
# [37] = tested on: SR leukemia
# [38] = tested on: HL-60(TB) leukemia
# [39] = tested on: DU-145 prostate
# [40] = tested on: SNB-19 CNS
# [41] = tested on: 786-0 renal
# [42] = tested on: NCI-H23 lung
# [43] = tested on: RXF 393 renal
# [44] = tested on: UACC-62 melanoma
# [45] = tested on: ACHN renal
# [46] = tested on: A498 renal
# [47] = tested on: OVCAR-3 ovarian
# [48] = tested on: KM12 colon
# [49] = tested on: OVCAR-5 ovarian
# [50] = tested on: TK-10 renal
# [51] = tested on: SF-295 CNS
# [52] = tested on: OVCAR-8 ovarian
# [53] = tested on: SK-MEL-5 melanoma
# [54] = tested on: MALME-3M melanoma
# [55] = tested on: EKVX NSCLC
# [56] = tested on: SK-MEL-2 melanoma
# [57] = tested on: SK-MEL-28 melanoma
# [58] = tested on: CAKI-1 renal
smiles,measurement,setting,value
CCN(CC)CCCNc1c2c(Cl)cc(Cl)cc2nc2nc(=O)[nH]c(C)c12,TGI,[1],> 100 µM
same,TGI,[2],36.9 µM
same,TGI,[3],51 µM
same,TGI,[4],> 100 µM
same,TGI,[5],64.7 µM
same,TGI,[6],49.2 µM
same,TGI,[7],> 100 µM
same,TGI,[8],33.8 µM
same,TGI,[9],> 100 µM
same,TGI,[10],> 100 µM
same,TGI,[11],> 100 µM
same,TGI,[12],37.7 µM
same,TGI,[13],> 100 µM
same,TGI,[14],46.9 µM
same,TGI,[15],53.9 µM
same,TGI,[16],52.5 µM
same,TGI,[17],> 100 µM
same,TGI,[18],> 10 µM
same,TGI,[19],> 100 µM
same,TGI,[20],> 100 µM
same,TGI,[21],33.9 µM
same,TGI,[22],> 100 µM
same,TGI,[23],> 100 µM
same,TGI,[24],48.5 µM
same,TGI,[25],36.4 µM
same,TGI,[26],61.9 µM
same,TGI,[27],> 100 µM
same,TGI,[28],58 µM
same,TGI,[29],> 100 µM
same,TGI,[30],37.1 µM
same,TGI,[31],> 100 µM
same,TGI,[32],37.9 µM
same,TGI,[33],54.3 µM
same,TGI,[34],> 100 µM
same,TGI,[35],> 100 µM
same,TGI,[36],> 100 µM
same,TGI,[37],> 10 µM
same,TGI,[38],> 100 µM
same,TGI,[39],> 100 µM
same,TGI,[40],44.3 µM
same,TGI,[41],38.1 µM
same,TGI,[42],> 100 µM
same,TGI,[43],> 100 µM
same,TGI,[44],> 100 µM
same,TGI,[45],> 100 µM
same,TGI,[46],> 100 µM
same,TGI,[47],> 100 µM
same,TGI,[48],31.1 µM
same,TGI,[49],50.6 µM
same,TGI,[50],> 100 µM
same,TGI,[51],> 100 µM
same,TGI,[52],> 10 µM
same,TGI,[53],> 100 µM
same,TGI,[54],> 100 µM
same,TGI,[55],> 100 µM
same,TGI,[56],> 100 µM
same,TGI,[57],95.2 µM
same,TGI,[58],> 100 µM
CSc1ncnc2c1cnn2Cc1cn(COCCO)nn1,TGI,[1],> 100 µM
same,TGI,[2],> 100 µM
same,TGI,[3],> 100 µM
same,TGI,[4],> 100 µM
same,TGI,[5],> 100 µM
same,TGI,[6],42.3 µM
same,TGI,[7],> 100 µM
same,TGI,[8],> 100 µM
same,TGI,[9],> 100 µM
same,TGI,[10],> 100 µM
same,TGI,[11],> 100 µM
same,TGI,[12],39.6 µM
same,TGI,[13],> 100 µM
same,TGI,[15],> 100 µM
same,TGI,[16],> 100 µM
same,TGI,[17],> 100 µM
same,TGI,[18],> 100 µM
same,TGI,[19],> 100 µM
same,TGI,[20],> 100 µM
same,TGI,[21],> 100 µM
same,TGI,[22],> 100 µM
same,TGI,[23],> 100 µM
same,TGI,[24],> 100 µM
same,TGI,[25],55.4 µM
same,TGI,[26],> 100 µM
same,TGI,[27],> 100 µM
same,TGI,[28],> 100 µM
same,TGI,[29],> 100 µM
same,TGI,[30],> 100 µM
same,TGI,[31],> 100 µM
same,TGI,[32],> 100 µM
same,TGI,[34],> 100 µM
same,TGI,[35],> 100 µM
same,TGI,[36],> 100 µM
same,TGI,[37],> 100 µM
same,TGI,[38],> 100 µM
same,TGI,[39],> 100 µM
same,TGI,[40],> 100 µM
same,TGI,[41],> 100 µM
same,TGI,[42],> 100 µM
same,TGI,[43],> 100 µM
same,TGI,[44],> 100 µM
same,TGI,[45],> 100 µM
same,TGI,[46],> 100 µM
same,TGI,[47],59.1 µM
same,TGI,[48],> 100 µM
same,TGI,[49],> 100 µM
same,TGI,[50],> 100 µM
same,TGI,[53],> 100 µM
same,TGI,[54],> 100 µM
same,TGI,[56],> 100 µM
same,TGI,[57],> 100 µM
